Assays:
Dmel\Orco + Dmel\Or35a [1] = biological target: T1, Dmel\Orco + Dmel\Or35a (Drosophila melanogaster, UniProt Q9VNB5); experiment: Agonist activation of Dmel\Orco + Dmel\Or35a in Xenopus oocytes, two-electrode voltage clamp; assay type: cell-based; details: for Emax at 100 µM: read-out: Response amplitude as percentage of response to 100 µM OLC3, Dmel\Orco + Dmel\Or35a; for Response amplitude as percentage of response to 100 µM OLC3, Dmel\Orco + Dmel\Or35a: 100 µM compound, mean ± SEM, n=3-8
T1 construct: expressed in transfected cells; host or cells: Xenopus laevis oocytes (cRNA injection, pGEMHE)
T1 sequence (Q9VNB5 1-486): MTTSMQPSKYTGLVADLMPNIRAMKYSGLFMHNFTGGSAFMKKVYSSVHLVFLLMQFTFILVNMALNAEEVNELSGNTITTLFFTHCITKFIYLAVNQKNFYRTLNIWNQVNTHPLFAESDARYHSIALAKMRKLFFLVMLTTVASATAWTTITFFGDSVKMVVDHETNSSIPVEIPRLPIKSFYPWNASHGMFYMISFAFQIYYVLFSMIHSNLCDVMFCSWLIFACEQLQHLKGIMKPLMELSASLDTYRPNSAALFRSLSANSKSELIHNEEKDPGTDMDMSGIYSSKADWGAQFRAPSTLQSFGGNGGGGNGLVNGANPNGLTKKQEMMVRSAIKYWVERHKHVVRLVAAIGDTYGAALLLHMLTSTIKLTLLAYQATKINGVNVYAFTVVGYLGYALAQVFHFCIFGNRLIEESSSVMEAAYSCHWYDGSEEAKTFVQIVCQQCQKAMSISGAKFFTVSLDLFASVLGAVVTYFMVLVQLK
T1 sequence (Q9V3Q2 1-409 partner): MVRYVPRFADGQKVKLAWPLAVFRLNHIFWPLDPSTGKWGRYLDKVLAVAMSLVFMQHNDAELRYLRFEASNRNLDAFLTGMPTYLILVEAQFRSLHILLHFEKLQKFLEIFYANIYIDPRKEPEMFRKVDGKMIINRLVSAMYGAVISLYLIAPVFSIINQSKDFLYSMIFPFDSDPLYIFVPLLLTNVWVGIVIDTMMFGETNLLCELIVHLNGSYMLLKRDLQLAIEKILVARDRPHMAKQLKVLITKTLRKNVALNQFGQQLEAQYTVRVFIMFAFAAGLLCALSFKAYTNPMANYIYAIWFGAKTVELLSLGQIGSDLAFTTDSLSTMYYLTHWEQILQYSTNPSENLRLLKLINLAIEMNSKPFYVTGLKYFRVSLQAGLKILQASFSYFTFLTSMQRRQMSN
Method: (§1) Oocytes were surgically removed from mature Xenopus laevis frogs. Follicle cells were removed by treatment with Collagenase B (Boehringer Mannhem) for 2 hours at room temperature. Capped cRNA encoding each DmOR subunit was generated using mMessage mMachine kits (Ambion). For heteromeric ORs, 25 ng of cRNA encoding each OR subunit was injected into Stage V-VI Xenopus oocytes. For expression of Orco alone, 50 ng of cRNA was injected. Oocytes were incubated at 18°C in Barth’s saline (in mM: 88 NaCl, 1 KCl, 2.4 NaHCO3, 0.3 CaNO3, 0.41 CaCl2, 0.82 MgSO4, 15 HEPES, pH 7.6, and 150 µg/ml ceftazidime) for 2–5 days prior to electrophysiological recording.
(§2) Odorant and Orco ligand induced currents were recorded under two-electrode voltage clamp in Xenopus laevis oocytes expressing ORs, using an automated parallel electrophysiology system (OpusExpress 6000A; Molecular Devices). Oocytes were perfused with ND96 (in mM: 96 NaCl, 2 KCl, 1 CaCl2, 1 MgCl2, 5 HEPES, pH 7.5). Odorant stock solutions (0.5 or 1 M) and Orco ligand stock solutions (100 mM) were prepared in DMSO and diluted in ND96. Unless otherwise noted, applications were for 60 sec at a flow rate of 1.0 ml/min, with extensive washing in ND96 (9 or 20 min at 4.6 ml/min) between applications. Micropipettes were filled with 3 M KCl and had resistances of 0.2−2.0 MΩ. The holding potential was −70 mV. Current responses, filtered (4-pole, Bessel, low pass) at 20 Hz (−3 db) and sampled at 100 Hz, were captured and stored using OpusXpress 1.1 software (Molecular Devices).
(§3) Initial analysis of electrophysiological data was done using Clampfit 9.1 software (Molecular Devices). Curve fitting and statistical analyses were done using Prism 5 (Graphpad). Concentration-response data were fit to the equation: I = Imax/(1+(EC50/X)^n) where I represents the current response at a given concentration of odorant, X; Imax is the maximal response; EC50 is the concentration of agonist yielding a half maximal response; n is the apparent Hill coefficient. Concentration-inhibition data were fit to the equation: I = Imax/(1+(X/IC50)^n) where I represents the current response at a given concentration of inhibitor, X; Imax is the maximal response in the absence of inhibitor; IC50 is the concentration of inhibitor present that still allows a half maximal response from odorant; n is the apparent Hill coefficient. Statistical significance was assessed using a two-tailed unpaired t test, an F test, or a one-way analysis of variance followed by the Bonferroni’s post-test, as appropriate.

Dmel\Orco [2] = biological target: T2, Dmel\Orco (Drosophila melanogaster, UniProt Q9VNB5); experiment: Agonist activation of homomeric Dmel\Orco in Xenopus oocytes, two-electrode voltage clamp; assay type: cell-based; details: for Emax at 100 µM: read-out: Response amplitude as percentage of response to 100 µM OLC3, Dmel\Orco; for Response amplitude as percentage of response to 100 µM OLC3, Dmel\Orco: 100 µM compound, mean ± SEM, n=3-8
T2 construct: expressed in transfected cells; host or cells: Xenopus laevis oocytes (cRNA injection, pGEMHE)
T2 sequence (Q9VNB5 1-486): T1 sequence (Q9VNB5 1-486)
Method: as §1, §2, §3

Cqui\Orco + Cqui\Or10 = Cqui\Orco + Cqui\Or10 (Culex quinquefasciatus, UniProt D5LMR7+Q309I4); experiment: Activation of Cqui\Orco + Cqui\Or10 in Xenopus oocytes, two-electrode voltage clamp; assay type: cell-based; details: 100 µM compound, mean ± SEM, n=3-8; for Emax at 100 µM: read-out: Response amplitude as percentage of response to 100 µM OLC3, Cqui\Orco + Cqui\Or10
Sequence of Cqui\Orco + Cqui\Or10 (D5LMR7 entry or part of it): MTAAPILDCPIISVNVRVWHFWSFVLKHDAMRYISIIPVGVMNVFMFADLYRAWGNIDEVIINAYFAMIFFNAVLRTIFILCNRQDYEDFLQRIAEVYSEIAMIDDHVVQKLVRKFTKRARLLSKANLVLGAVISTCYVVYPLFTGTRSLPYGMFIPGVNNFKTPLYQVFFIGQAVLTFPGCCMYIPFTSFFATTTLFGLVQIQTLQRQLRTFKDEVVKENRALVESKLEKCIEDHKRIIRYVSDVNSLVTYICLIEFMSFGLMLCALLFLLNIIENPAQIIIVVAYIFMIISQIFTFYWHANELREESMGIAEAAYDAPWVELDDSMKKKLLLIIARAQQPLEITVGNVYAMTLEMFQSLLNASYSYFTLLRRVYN
Sequence of Cqui\Orco + Cqui\Or10 (Q309I4 entry or part of it): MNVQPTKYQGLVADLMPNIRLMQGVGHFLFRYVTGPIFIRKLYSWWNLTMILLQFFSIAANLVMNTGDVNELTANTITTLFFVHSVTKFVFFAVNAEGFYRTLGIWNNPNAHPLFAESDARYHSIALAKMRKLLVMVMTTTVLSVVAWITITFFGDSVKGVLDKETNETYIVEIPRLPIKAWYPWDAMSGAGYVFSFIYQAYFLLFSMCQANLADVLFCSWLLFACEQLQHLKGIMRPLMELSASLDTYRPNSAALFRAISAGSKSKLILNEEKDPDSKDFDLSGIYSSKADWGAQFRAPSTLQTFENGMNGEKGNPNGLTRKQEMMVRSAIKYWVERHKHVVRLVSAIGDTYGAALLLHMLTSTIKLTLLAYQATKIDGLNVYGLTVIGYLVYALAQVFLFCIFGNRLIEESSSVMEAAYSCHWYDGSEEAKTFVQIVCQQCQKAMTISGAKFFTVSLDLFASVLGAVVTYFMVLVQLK
Method: as §1, §2, §3

Cqui\Orco = experiment: Agonist activation of homomeric Cqui\Orco in Xenopus oocytes, two-electrode voltage clamp; assay type: cell-based, Culex quinquefasciatus; details: 100 µM compound; mean ± SEM, n=3-8
Dmel\Orco + Dmel\Or35a [3] = biological target: T1, Dmel\Orco + Dmel\Or35a; experiment: Inhibition of OLC12 activation of Dmel\Orco + Dmel\Or35a in Xenopus oocytes; assay type: cell-based; details: activated by 10 µM OLC12 (EC25); read-out: IC50, Dmel\Orco + Dmel\Or35a (activated by 10 µM OLC12)
Method: as §1, §2
(§4) In inhibition assays, oocytes were exposed to 60 sec applications of OLC12 with 9 min washes between applications (Fig. 3 and 4) or 60 sec applications of odorant with 20 min washes between applications (Fig. 5). Oocytes were then exposed to a 90 sec application of antagonist candidate, immediately followed by a 60 sec co-application of antagonist candidate and OLC12 or odorant. Oocytes were then exposed to a final 60 sec application of OLC12 or odorant. The current response in the presence of antagonist candidate was compared to the preceding response(s) to OLC12 (or odorant) alone.
as §3

Dmel\Orco [4] = biological target: T2, Dmel\Orco; experiment: Inhibition of OLC12 activation of Dmel\Orco in Xenopus oocytes; assay type: cell-based; details: activated by 30 µM OLC12 (EC39)
Method: as §1, §2, §4, §3

Dmel\Orco + Dmel\Or35a [5] = biological target: T1, Dmel\Orco + Dmel\Or35a; experiment: Inhibition of odorant (hexanol) activation of Dmel\Orco + Dmel\Or35a in Xenopus oocytes; assay type: cell-based; details: 3 µM hexanol; OLC2 100 µM, OLC15 50 µM, OLC20 200 µM
Method: as §1, §2
In inhibition assays, oocytes were exposed to 60 sec applications of OLC12 with 9 min washes between applications (Fig. 3 and 4) or 60 sec applications of odorant with 20 min washes between applications (Fig. 5). […]
Initial analysis of electrophysiological data was done using Clampfit 9.1 software (Molecular Devices). […] Statistical significance was assessed using a two-tailed unpaired t test, an F test, or a one-way analysis of variance followed by the Bonferroni’s post-test, as appropriate.

Structure (SMILES): CCn1c(SCC(=O)Nc2ccc(N(C)C)cc2)nnc1-c1ccncc1 [OLC14]
- Emax at 100 µM (Dmel\Orco + Dmel\Or35a [1]): 2 ± 1%
- Emax at 100 µM (Dmel\Orco [2]): 0%
- Emax at 100 µM (Cqui\Orco + Cqui\Or10): 12 ± 2%
- Response amplitude as percentage of response to 100 µM OLC3, Cqui\Orco (Cqui\Orco): 0%
- IC50 (Dmel\Orco + Dmel\Or35a [3]): 81 ± 23 µM
- IC50 (Dmel\Orco [4]): 25 ± 4 µM

Structure (SMILES): Sc1nnc(-c2cccnc2)[nH]1 [OLC16]
- Response amplitude as percentage of response to 100 µM OLC3, Dmel\Orco + Dmel\Or35a (Dmel\Orco + Dmel\Or35a [1]): 0%
- Response amplitude as percentage of response to 100 µM OLC3, Dmel\Orco (Dmel\Orco [2]): 0%
- Response amplitude as percentage of response to 100 µM OLC3, Cqui\Orco + Cqui\Or10 (Cqui\Orco + Cqui\Or10): 0%
- Response amplitude as percentage of response to 100 µM OLC3, Cqui\Orco (Cqui\Orco): 3 ± 2%

Structure (SMILES): C=CCn1c(S)nnc1-c1cccnc1 [OLC17]
- Response amplitude as percentage of response to 100 µM OLC3, Dmel\Orco + Dmel\Or35a (Dmel\Orco + Dmel\Or35a [1]): 0%
- Response amplitude as percentage of response to 100 µM OLC3, Dmel\Orco (Dmel\Orco [2]): 0%
- Response amplitude as percentage of response to 100 µM OLC3, Cqui\Orco + Cqui\Or10 (Cqui\Orco + Cqui\Or10): 0%
- Response amplitude as percentage of response to 100 µM OLC3, Cqui\Orco (Cqui\Orco): 3 ± 2%

Structure (SMILES): Cn1cnnc1-c1ccncc1 [OLC18]
- Response amplitude as percentage of response to 100 µM OLC3, Dmel\Orco + Dmel\Or35a (Dmel\Orco + Dmel\Or35a [1]): 0%
- Response amplitude as percentage of response to 100 µM OLC3, Dmel\Orco (Dmel\Orco [2]): 0%
- Response amplitude as percentage of response to 100 µM OLC3, Cqui\Orco + Cqui\Or10 (Cqui\Orco + Cqui\Or10): 0%
- Response amplitude as percentage of response to 100 µM OLC3, Cqui\Orco (Cqui\Orco): 0%

Structure (SMILES): CCc1ccc(NC(C)=O)cc1 [OLC19]
- Response amplitude as percentage of response to 100 µM OLC3, Dmel\Orco + Dmel\Or35a (Dmel\Orco + Dmel\Or35a [1]): 0%
- Response amplitude as percentage of response to 100 µM OLC3, Dmel\Orco (Dmel\Orco [2]): 0%
- Response amplitude as percentage of response to 100 µM OLC3, Cqui\Orco + Cqui\Or10 (Cqui\Orco + Cqui\Or10): 0%
- Response amplitude as percentage of response to 100 µM OLC3, Cqui\Orco (Cqui\Orco): 3 ± 2%

Structure (SMILES): CCc1ccc(NC(=O)c2cccs2)cc1 [OLC20]
- Emax at 100 µM (Dmel\Orco + Dmel\Or35a [1]): 0%
- Emax at 100 µM (Dmel\Orco [2]): 0%
- Emax at 100 µM (Cqui\Orco + Cqui\Or10): 11 ± 4%
- Response amplitude as percentage of response to 100 µM OLC3, Cqui\Orco (Cqui\Orco): 0%
- IC50 (Dmel\Orco + Dmel\Or35a [3]): 55 ± 15 µM
- IC50 (Dmel\Orco [4]): 57 ± 19 µM
- Inhibition of the hexanol response of Dmel\Orco+Dmel\Or35a (Dmel\Orco + Dmel\Or35a [5]): substantial inhibition

Structure (SMILES): CC(C)c1ccc(NC(=O)CSc2nnnn2C)cc1 [OLC21]
- Response amplitude as percentage of response to 100 µM OLC3, Dmel\Orco + Dmel\Or35a (Dmel\Orco + Dmel\Or35a [1]): 0%
- Response amplitude as percentage of response to 100 µM OLC3, Dmel\Orco (Dmel\Orco [2]): 0%
- Response amplitude as percentage of response to 100 µM OLC3, Cqui\Orco + Cqui\Or10 (Cqui\Orco + Cqui\Or10): 0%
- Response amplitude as percentage of response to 100 µM OLC3, Cqui\Orco (Cqui\Orco): 0%

Structure (SMILES): CCCCc1ccc(NC(=O)c2cccs2)cc1 [OLC22]
- Emax at 100 µM (Dmel\Orco + Dmel\Or35a [1]): 0%
- Emax at 100 µM (Dmel\Orco [2]): 0%
- Emax at 100 µM (Cqui\Orco + Cqui\Or10): 0%
- Response amplitude as percentage of response to 100 µM OLC3, Cqui\Orco (Cqui\Orco): 0%
- IC50 (Dmel\Orco + Dmel\Or35a [3]): 26 ± 4 µM
- IC50 (Dmel\Orco [4]): 52 ± 18 µM

Structure (SMILES): Cc1nnc(-c2ccccn2)[nH]1 [OLC23]
- Response amplitude as percentage of response to 100 µM OLC3, Dmel\Orco + Dmel\Or35a (Dmel\Orco + Dmel\Or35a [1]): 0%
- Response amplitude as percentage of response to 100 µM OLC3, Dmel\Orco (Dmel\Orco [2]): 0%
- Response amplitude as percentage of response to 100 µM OLC3, Cqui\Orco + Cqui\Or10 (Cqui\Orco + Cqui\Or10): 8 ± 3%
- Response amplitude as percentage of response to 100 µM OLC3, Cqui\Orco (Cqui\Orco): 0%

— publication PMC3348135, “Identification of New Agonists and Antagonists of the Insect Odorant Receptor Co-Receptor Subunit” (PLoS ONE, 2012)
